In BindingDB's records for doi:10.1073/pnas.0606956103 (Targegen, 2006) one finds IC50 data, which are given here for two molecules.

The term IC50 denotes the midpoint of a concentration-inhibition curve. The low end stands for inhibition by little substance, the high end for a need for much substance.

Common to all, as to experiment: Determination of PI3K Activity
Common to all, as to conditions: pH 7.4; 22 °C

In experiment [1] the target is Phosphatidylinositol 3-kinase regulatory subunit alpha/4,5-bisphosphate 3-kinase catalytic subunit beta isoform (Homo sapiens, UniProt P42338).
In experiment [2] the target is Phosphatidylinositol 3-kinase regulatory subunit alpha/4,5-bisphosphate 3-kinase catalytic subunit delta isoform (Homo sapiens, UniProt O00329).
The target of experiment [3] is Phosphatidylinositol 3-kinase regulatory subunit alpha/4,5-bisphosphate 3-kinase catalytic subunit alpha isoform (Homo sapiens, UniProt P42336).
Chain of Phosphatidylinositol 3-kinase regulatory subunit alpha/4,5-bisphosphate 3-kinase catalytic subunit alpha isoform (P27986 whole entry, canonical isoform): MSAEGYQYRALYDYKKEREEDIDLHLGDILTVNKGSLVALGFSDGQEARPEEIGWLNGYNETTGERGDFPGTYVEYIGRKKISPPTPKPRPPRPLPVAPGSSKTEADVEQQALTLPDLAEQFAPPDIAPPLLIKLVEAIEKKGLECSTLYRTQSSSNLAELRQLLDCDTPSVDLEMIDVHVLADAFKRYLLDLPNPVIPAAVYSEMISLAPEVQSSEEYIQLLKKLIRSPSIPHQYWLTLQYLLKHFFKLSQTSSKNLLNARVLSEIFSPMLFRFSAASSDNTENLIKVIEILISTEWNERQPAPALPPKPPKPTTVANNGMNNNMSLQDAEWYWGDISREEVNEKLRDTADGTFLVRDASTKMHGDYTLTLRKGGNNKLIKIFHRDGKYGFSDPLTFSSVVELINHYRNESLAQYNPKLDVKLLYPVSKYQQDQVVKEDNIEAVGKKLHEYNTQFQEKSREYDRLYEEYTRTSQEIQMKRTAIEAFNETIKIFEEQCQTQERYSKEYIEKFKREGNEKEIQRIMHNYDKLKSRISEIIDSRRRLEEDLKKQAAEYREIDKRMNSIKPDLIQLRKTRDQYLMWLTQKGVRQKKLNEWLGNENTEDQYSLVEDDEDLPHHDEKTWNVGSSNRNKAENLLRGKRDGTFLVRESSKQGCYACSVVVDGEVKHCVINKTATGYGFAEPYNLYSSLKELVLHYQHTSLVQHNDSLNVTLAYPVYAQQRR
Chain of Phosphatidylinositol 3-kinase regulatory subunit alpha/4,5-bisphosphate 3-kinase catalytic subunit alpha isoform (P42336 whole entry, canonical isoform): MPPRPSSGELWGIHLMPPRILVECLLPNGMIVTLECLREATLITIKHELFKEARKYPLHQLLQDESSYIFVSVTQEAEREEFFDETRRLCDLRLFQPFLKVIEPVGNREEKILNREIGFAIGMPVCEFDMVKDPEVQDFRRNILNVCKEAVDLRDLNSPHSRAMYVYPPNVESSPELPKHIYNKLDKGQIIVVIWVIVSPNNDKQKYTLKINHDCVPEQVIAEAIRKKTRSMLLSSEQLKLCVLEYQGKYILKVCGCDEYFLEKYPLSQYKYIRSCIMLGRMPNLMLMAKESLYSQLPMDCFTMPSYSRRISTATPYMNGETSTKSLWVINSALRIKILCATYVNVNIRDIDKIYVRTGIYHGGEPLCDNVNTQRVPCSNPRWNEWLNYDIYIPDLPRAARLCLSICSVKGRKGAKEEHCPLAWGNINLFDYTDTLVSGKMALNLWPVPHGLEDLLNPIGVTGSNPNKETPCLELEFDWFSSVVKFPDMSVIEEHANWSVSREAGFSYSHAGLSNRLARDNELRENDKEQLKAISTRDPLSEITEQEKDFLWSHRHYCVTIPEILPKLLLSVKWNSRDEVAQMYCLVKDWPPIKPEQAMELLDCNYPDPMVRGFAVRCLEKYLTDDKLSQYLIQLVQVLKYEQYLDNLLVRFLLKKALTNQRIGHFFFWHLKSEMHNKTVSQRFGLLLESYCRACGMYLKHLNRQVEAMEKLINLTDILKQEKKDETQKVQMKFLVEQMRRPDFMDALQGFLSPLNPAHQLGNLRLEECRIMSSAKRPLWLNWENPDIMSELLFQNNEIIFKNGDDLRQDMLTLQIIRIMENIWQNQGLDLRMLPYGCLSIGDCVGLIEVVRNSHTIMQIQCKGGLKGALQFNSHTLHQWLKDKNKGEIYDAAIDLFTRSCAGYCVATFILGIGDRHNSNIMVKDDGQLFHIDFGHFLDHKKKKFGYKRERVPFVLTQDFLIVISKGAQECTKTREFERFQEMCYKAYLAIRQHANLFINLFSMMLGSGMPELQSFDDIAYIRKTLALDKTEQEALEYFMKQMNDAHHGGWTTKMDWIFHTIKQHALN

Chain of Phosphatidylinositol 3-kinase regulatory subunit alpha/4,5-bisphosphate 3-kinase catalytic subunit delta isoform (P27986 whole entry, canonical isoform): as the sequence (P27986 whole entry, canonical isoform) above
Chain of Phosphatidylinositol 3-kinase regulatory subunit alpha/4,5-bisphosphate 3-kinase catalytic subunit delta isoform (O00329 whole entry, canonical isoform): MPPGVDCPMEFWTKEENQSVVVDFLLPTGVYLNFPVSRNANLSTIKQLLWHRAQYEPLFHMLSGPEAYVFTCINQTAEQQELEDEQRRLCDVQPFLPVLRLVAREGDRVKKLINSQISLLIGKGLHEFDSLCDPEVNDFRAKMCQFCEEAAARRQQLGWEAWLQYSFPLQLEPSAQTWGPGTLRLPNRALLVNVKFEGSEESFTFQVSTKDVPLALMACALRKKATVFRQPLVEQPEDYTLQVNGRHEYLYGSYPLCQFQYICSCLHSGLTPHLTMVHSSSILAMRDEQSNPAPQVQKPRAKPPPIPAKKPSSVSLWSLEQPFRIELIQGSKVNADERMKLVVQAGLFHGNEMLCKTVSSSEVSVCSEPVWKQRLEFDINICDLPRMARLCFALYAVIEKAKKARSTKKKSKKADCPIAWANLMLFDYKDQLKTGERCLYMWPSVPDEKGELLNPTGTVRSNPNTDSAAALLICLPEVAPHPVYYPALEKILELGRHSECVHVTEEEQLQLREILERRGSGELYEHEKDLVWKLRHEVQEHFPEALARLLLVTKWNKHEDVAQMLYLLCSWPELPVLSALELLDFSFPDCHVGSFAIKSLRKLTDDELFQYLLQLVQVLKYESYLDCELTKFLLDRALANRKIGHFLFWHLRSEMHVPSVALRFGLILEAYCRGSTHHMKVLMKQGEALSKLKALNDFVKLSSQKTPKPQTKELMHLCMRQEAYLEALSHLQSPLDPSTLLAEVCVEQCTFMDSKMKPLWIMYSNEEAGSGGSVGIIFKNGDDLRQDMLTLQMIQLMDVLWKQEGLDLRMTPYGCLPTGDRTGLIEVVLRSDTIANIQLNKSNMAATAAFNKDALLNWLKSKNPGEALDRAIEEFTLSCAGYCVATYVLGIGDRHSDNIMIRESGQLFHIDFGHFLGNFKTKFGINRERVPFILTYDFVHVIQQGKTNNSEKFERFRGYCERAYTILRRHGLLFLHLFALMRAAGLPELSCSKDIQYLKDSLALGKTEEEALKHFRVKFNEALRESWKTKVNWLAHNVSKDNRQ
Chain of Phosphatidylinositol 3-kinase regulatory subunit alpha/4,5-bisphosphate 3-kinase catalytic subunit beta isoform (P27986 whole entry, canonical isoform): as the sequence (P27986 whole entry, canonical isoform) above
Chain of Phosphatidylinositol 3-kinase regulatory subunit alpha/4,5-bisphosphate 3-kinase catalytic subunit beta isoform (P42338 whole entry, canonical isoform): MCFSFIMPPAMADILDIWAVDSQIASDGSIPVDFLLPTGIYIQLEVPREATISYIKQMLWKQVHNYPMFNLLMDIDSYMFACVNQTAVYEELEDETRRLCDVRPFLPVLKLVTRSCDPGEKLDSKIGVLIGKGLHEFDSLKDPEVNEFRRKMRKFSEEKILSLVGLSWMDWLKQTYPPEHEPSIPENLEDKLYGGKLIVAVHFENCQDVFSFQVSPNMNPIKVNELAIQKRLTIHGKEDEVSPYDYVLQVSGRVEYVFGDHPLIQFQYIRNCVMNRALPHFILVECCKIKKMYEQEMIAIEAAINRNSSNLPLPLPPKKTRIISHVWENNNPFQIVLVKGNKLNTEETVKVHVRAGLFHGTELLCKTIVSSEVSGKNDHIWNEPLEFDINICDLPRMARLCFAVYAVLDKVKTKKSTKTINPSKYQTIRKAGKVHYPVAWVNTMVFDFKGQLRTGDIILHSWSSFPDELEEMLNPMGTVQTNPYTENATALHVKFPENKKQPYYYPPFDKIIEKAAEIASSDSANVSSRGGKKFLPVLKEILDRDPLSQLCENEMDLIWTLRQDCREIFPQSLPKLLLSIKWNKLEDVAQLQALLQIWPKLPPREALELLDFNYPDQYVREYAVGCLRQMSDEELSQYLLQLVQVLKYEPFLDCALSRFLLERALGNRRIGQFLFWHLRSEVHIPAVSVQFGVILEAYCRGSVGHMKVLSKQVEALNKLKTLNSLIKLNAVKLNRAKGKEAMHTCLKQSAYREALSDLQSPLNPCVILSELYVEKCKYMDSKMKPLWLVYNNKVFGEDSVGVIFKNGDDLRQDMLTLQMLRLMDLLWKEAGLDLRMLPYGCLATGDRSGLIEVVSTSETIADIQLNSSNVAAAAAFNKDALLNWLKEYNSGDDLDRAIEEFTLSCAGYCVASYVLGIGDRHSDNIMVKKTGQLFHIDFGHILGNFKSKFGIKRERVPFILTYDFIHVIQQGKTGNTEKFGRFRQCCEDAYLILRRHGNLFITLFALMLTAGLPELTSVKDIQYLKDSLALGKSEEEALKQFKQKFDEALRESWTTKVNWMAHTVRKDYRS

`Nc1nc(N)c2nc(-c3cccc4[nH]ccc34)cnc2n1` [6-(1H-indol-4-yl)pteridine-2,4-diamine]: the values for the IC50 in experiment [1], in experiment [2] and in experiment [3] were 107 nM, 64 nM and 1200 nM, respectively.
Turning to `O=c1cc(N2CCOCC2)oc2c(-c3ccccc3)cccc12`, in experiment [2], the midpoint of inhibition, the IC50, lay at 561 nM.
